Experimental data: patent US20130101996A1, “DETECTION METHOD AND APPARATUS OF ACTIVATED NEUTROPHILS” (SYSMEX CORPORATION, priority 2011, published 2013)

Tests used:
Assay type in all cases: cell-based, human
[1] = tested on: neutrophils in whole blood; experiment: Whole blood measured by automated blood cell counter XE-2100, DIFF scattergram of 4DS-SSC; conditions: PMA 0.32 nM, room temperature 10 min; whole blood (EDTA-2K)
Experimental: Peripheral blood is extracted from an able-bodied person by using a blood collection tube containing EDTA-2K for hematologic examination. PMA (manufactured by Sigma-Aldrich Co., LLC.) (final concentration: 0.32 nM) is added to the obtained blood, which is left still at room temperature for 10 min. Whole blood to which PMA is not added is used as a control sample.
The prepared sample is supplied to the automated blood cell counter XE-2100 (manufactured by Sysmex Corporation) for measurement to acquire a DIFF scattergram of 4DS-SSC. The automated blood cell counter XE-2100 automatically treats the sample prepared as described above by using Stromatolyser-4DL and Stromatolyser-4DS (manufactured by Sysmex Corporation) to prepare a measurement sample.

neutrophils [2] = experiment: Transmission electron microscope observation of stimulated neutrophils; conditions: PMA or fMLP added, fixed by 2.5% glutaraldehyde
Experimental: A sample containing activated neutrophils is prepared from peripheral blood extracted from an able-bodied person in the same manner as in Example 1. Also, a sample not treated by a stimulating substance is prepared as a control sample.
The samples are fixed by 2.5% glutaraldehyde to prepare electron microscope samples according to the method described in the literature by the inventors (Mari Kono et al. (2009), ‘Morphological definition of CD71 positive reticulocytes by various staining techniques and electron microscopy compared to reticulocytes detected by an automated hematology analyzer’, Clinica Chimica Acta, Vol. 404, p105-110.). The obtained samples are analyzed by using a transmission electron microscope (Hitachi H-7500).

neutrophils [3] = experiment: Flow cytometry (FACSCalibur) of stimulated polymorphonucleocytes, 4DS-SSC scattergram; conditions: PMA 0.32 nM or fMLP 50 nM, room temperature 10 min; versus non-stimulated control
Experimental: Peripheral blood is extracted from an able-bodied person by using a heparin blood collection tube for hematologic examination. A polynuclear sample of purity 90% or more is obtained by centrifugation of the obtained blood using a monopolymer separation solution (Dainippon Sumitomo Pharma Co., Ltd.) at room temperature. This operation is performed according to instructions of the manufacturer (Dainippon Sumitomo Pharma Co., Ltd.). Then, the obtained polymorphonucleocytes (2×10^5) are suspended in a 1 mL of 0.1% bovine serum albumin (phosphate buffered saline). To stain neutrophils of polymorphonucleocytes, CD16 (antihuman CD16 Fc gamma receptor III (clone: DJ130c).mouse monoclonal antibody/neutrophil specific antibody for RPE labeled flow cytometry; Dako) (final concentration: 750 μg/L) fluorescence-labeled by phycoerythrin (PE) is added to the obtained suspension for incubation at room temperature for 10 min. Next, APF (Aminophenyl Fluorescein, Sekisui Medical Co., Ltd.) (final concentration: 10 μM) as a reagent for ROS detection is added to the suspension, which is left still at room temperature for 30 min. […]

neutrophils [4] = experiment: Confocal laser microscope observation of APF fluorescence (ROS production) in stimulated neutrophils; conditions: PMA as stimulating substance, APF 10 μM; confocal laser microscopes
Experimental: A sample containing activated neutrophils is prepared from peripheral blood extracted from an able-bodied person in the same manner as in Example 1. However, only PMA is used as a stimulating substance of neutrophils. A sample (−APF) not treated by APF and a stimulating substance and a sample (+APF) not treated by a stimulating substance are prepared as control samples.
Each prepared sample is moved to a glass bottom dish coated with poly-L-lysine to observe neutrophils in the sample by confocal laser microscopes (IX81 (manufactured by Olympus Corporation), CSU-X1 (manufactured by Yokogawa Electric Corporation), and ImagEM (manufactured by Hamamatsu Photonics K. K.)).

Compound | appearance of activated neutrophils in 4DS-SSC scattergram, whole blood [1] | changes of form of neutrophils (degranulation, vacuole in cytoplasm) (neutrophils [2]) | appearance region of neutrophils in 4DS-SSC scattergram (neutrophils [3]) | ROS production capability of neutrophils (APF derived fluorescence) (neutrophils [4])
CCCCCCCCCCCCCC(=O)O[C@@H]1[C@@H](C)[C@@]2(O)[C@@H](C=C(CO)C[C@]3(O)C(=O)C(C)=C[C@@H]23)[C@@H]2C(C)(C)[C@]12OC(C)=O [PMA, Phorbol 12-myristate 13-acetate] | activated neutrophils appear between a cluster containing neutrophils and a cluster containing eosinophils | many neutrophils in which degranulation and vacuole are produced in cytoplasm are observed | neutrophils appear on other regions | enhanced
N-Formyl-Met-Leu-Phe [fMLP] | – | many neutrophils in which degranulation and vacuole are produced in cytoplasm are observed | neutrophils appear on other regions | –
